In brackets after ≈: the same amount, converted by molar mass. Several values for one entry are separate records, joined by “and”; a condition that tells them apart may be missing. Equal values may be shown once. Values belong to the compound of their own block, whether it stands above or below them.
What was measured:
Assay in all cases: ≥ marks a high value that may be exact or a test limit, other limits are often not marked, values filed in µg/mL are converted to µM
[1] = tested on: Staphylococcus epidermidis ATCC 12228
[2] = tested on: Pseudomonas aeruginosa ATCC 27853
[3] = tested on: Shigella dysenteriae ATCC 9752
[4] = tested on: Micrococcus luteus ATCC 10240
[5] = tested on: Staphylococcus aureus ATCC 6538P
[6] = tested on: Bacillus subtilis ATCC 6633
[7] = tested on: Klebsiella pneumoniae ATCC 10031
[8] = tested on: Escherichia coli ATCC 25922
[9] = tested on: Salmonella enterica subsp. enterica serovar Typhimurium ATCC 14028
Proteus vulgaris = tested on: Proteus vulgaris
Salmonella typhimurium = tested on: Salmonella typhimurium
[10] = tested on: Staphylococcus epidermidis
Bacillus subtilis = tested on: Bacillus subtilis
Streptococcus pyogenes = tested on: Streptococcus pyogenes
Escherichia coli = tested on: Escherichia coli
Pseudomonas aeruginosa = tested on: Pseudomonas aeruginosa
Escherichia coli B = tested on: Escherichia coli B
[11] = tested on: Candida albicans F7-39/IDE99
[12] = tested on: Micrococcus luteus CCM 144
Staphylococcus aureus = tested on: Staphylococcus aureus
Bacillus subtilis 168 = tested on: Bacillus subtilis 168
[13] = tested on: Candida glabrata IOC 4565
[14] = tested on: Candida tropicalis IOC 4560
Candida albicans MDM8 = tested on: Candida albicans MDM8
[15] = tested on: Candida parapsilosis IOC 4564
[16] = tested on: Candida albicans IOC 4558
[17] = tested on: Trichosporon sp. IOC 4569
Candida krusei IOC 4559 = tested on: Candida krusei IOC 4559
Enterococcus faecium = tested on: Enterococcus faecium
Bacillus cereus = tested on: Bacillus cereus
[18] = tested on: Pseudomonas aeruginosa CGMCC 1.860
Bacillus cereus AS1.126 = tested on: Bacillus cereus AS1.126
Lactococcus lactis = tested on: Lactococcus lactis
[19] = tested on: Proteus mirabilis CICC 22931
[20] = tested on: Enterococcus faecalis CGMCC 1.595
[21] = tested on: Lactococcus lactis AS1.1690
[22] = tested on: Staphylococcus aureus AS1.72
Acinetobacter baumannii = tested on: Acinetobacter baumannii
[23] = tested on: Klebsiella aerogenes CGMCC 1.876
Pseudomonas fluorescens = tested on: Pseudomonas fluorescens
[24] = tested on: Acinetobacter baumannii CICC 22934
Escherichia coli AS1.349 = tested on: Escherichia coli AS1.349
[25] = tested on: Enterococcus faecium CGMCC 1.2334
Enterobacter cloacae = tested on: Enterobacter cloacae
[26] = tested on: Staphylococcus aureus ATCC 12600
[27] = tested on: Staphylococcus epidermidis CICC 23664
Klebsiella aerogenes = tested on: Klebsiella aerogenes
[28] = tested on: Escherichia coli ATCC 11775
Klebsiella pneumoniae = tested on: Klebsiella pneumoniae
[29] = tested on: Enterobacter cloacae CGMCC 1.58
[30] = tested on: Klebsiella pneumoniae subsp. pneumoniae CGMCC 1.176
[31] = tested on: Streptococcus dysgalactiae PTCC 1074
[32] = tested on: Klebsiella pneumoniae PTCC 1388
[33] = tested on: Streptococcus agalactiae PTCC 1365
[34] = tested on: Staphylococcus aureus PTCC 1431
[35] = tested on: Escherichia coli HP101BA 7601c
[36] = tested on: Salmonella typhimurium PTCC 1428

SMILES: CC(C)C[C@H](NC(=O)[C@H](CCCCN)NC(=O)[C@H](CC(C)C)NC(=O)[C@H](CC(C)C)NC(=O)[C@H](Cc1c[nH]c2ccccc12)NC(=O)[C@H](CCCCN)NC(=O)[C@H](CC(C)C)NC(=O)[C@H](CC(C)C)NC(=O)[C@@H](N)CCCCN)C(N)=O [KLLKWLLKL]
- MIC [1]: 10.8 µM (≈ 12.5 µg/mL)
- MIC [2]: 43.3 µM (≈ 50 µg/mL)
- MIC [3]: 10.8 µM (≈ 12.5 µg/mL)
- MIC [4]: 21.7 µM (≈ 25 µg/mL)
- MIC [5]: 2.69 µM (≈ 3.1 µg/mL)
- MIC [6]: 10.8 µM (≈ 12.5 µg/mL)
- MIC [7]: 5.46 µM (≈ 6.29 µg/mL)
- MIC [8]: 10.8 µM (≈ 12.5 µg/mL)
- MIC [9]: 21.7 µM (≈ 25 µg/mL)

SMILES: CC(C)C[C@H](NC(=O)[C@H](CCCN=C(N)N)NC(=O)[C@@H]1CCCN1C(=O)[C@H](Cc1cnc[nH]1)NC(=O)[C@@H]1CCCN1C(=O)[C@@H]1CCCN1C(=O)[C@H](CCCN=C(N)N)NC(=O)[C@@H]1CCCN1C(=O)[C@@H](N)CCC(N)=O)C(=O)O [QPRPPHPRL]
- MIC (Proteus vulgaris): ≥ 64 µM
- MIC (Salmonella typhimurium): ≥ 32 µM
- MIC [10]: ≥ 64 µM
- MIC (Bacillus subtilis): ≥ 64 µM
- MIC (Streptococcus pyogenes): ≥ 64 µM
- MIC (Escherichia coli): 64 µM (≈ 70.2 µg/mL)
- MIC (Pseudomonas aeruginosa): 64 µM (≈ 70.2 µg/mL)

SMILES: CC(C)C[C@H](NC(=O)CNC(=O)[C@H](Cc1ccccc1)NC(=O)[C@H](CCCN=C(N)N)NC(=O)[C@H](CCCN=C(N)N)NC(=O)CNC(=O)[C@H](Cc1cnc[nH]1)NC(=O)[C@H](CCCN=C(N)N)NC(=O)CNC(=O)[C@@H](NC(=O)[C@H](C)NC(=O)[C@@H](N)CO)C(C)C)C(=O)N[C@@H](CCCN=C(N)N)C(=O)N[C@@H](CCCCN)C(=O)N[C@@H](Cc1cnc[nH]1)C(=O)N[C@@H](CCCN=C(N)N)C(=O)N[C@@H](CCCCN)C(=O)N[C@@H](Cc1cnc[nH]1)C(=O)O [SAVGRHGRRFGLRKHRKH]
- MIC (Enterococcus faecium): ≥ 50 µM
- MIC (Bacillus cereus): 11.6 µM (≈ 25 µg/mL)
- MIC [18]: ≥ 380 µM
- MIC (Bacillus cereus AS1.126): 11.6 µM (≈ 25 µg/mL)
- MIC (Lactococcus lactis): 11.6 µM (≈ 25 µg/mL)
- MIC [19]: ≥ 100 µM
- MIC [20]: ≥ 33.3 µM
- MIC [21]: 15.6 µM (≈ 33.6 µg/mL)
- MIC [22]: ≥ 58 µM
- MIC (Acinetobacter baumannii): ≥ 50 µM
- MIC [23]: ≥ 500 µM
- MIC (Pseudomonas fluorescens): ≥ 50 µM
- MIC [24]: ≥ 100 µM
- MIC [10]: ≥ 50 µM
- MIC (Escherichia coli AS1.349): ≥ 500 µM
- MIC [25]: ≥ 42.4 µM
- MIC (Enterobacter cloacae): ≥ 50 µM
- MIC [26]: 6 µM (≈ 12.9 µg/mL)
- MIC [27]: 7.2 µM (≈ 15.5 µg/mL)
- MIC (Klebsiella aerogenes): ≥ 50 µM
- MIC [28]: 3 µM (≈ 6.47 µg/mL)
- MIC (Staphylococcus aureus): 58 µM and 50 µM
- MIC (Klebsiella pneumoniae): > 50 µM
- MIC (Escherichia coli): > 100 µM and 50 µM
- MIC (Pseudomonas aeruginosa): > 50 µM
- MIC [29]: ≥ 500 µM
- MIC [30]: ≥ 500 µM

Second part, the compound after the results:

- MIC (Escherichia coli B): ≥ 63.3 µM
- MIC [11]: 24.2 µM (≈ 66.6 µg/mL)
- MIC [12]: 1.6 µM (≈ 4.4 µg/mL)
- MIC (Staphylococcus aureus): > 100 µM
- MIC (Pseudomonas aeruginosa): > 100 µM
- MIC (Bacillus subtilis 168): 3.3 µM (≈ 9.08 µg/mL)
SMILES: CC[C@H](C)[C@@H]1NC(=O)[C@H](CCCCN)NC(=O)[C@H](CCCCN)NC(=O)[C@@H]2CSSC[C@H](NC(=O)[C@H](C)NC(=O)[C@H](C(C)C)NC(=O)[C@@H](NC(=O)[C@@H](NC(=O)[C@@H](NC(=O)[C@H](CCCCN)NC(=O)[C@H](CCCCN)NC(=O)[C@@H](NC(=O)[C@H](CC(=O)O)NC(=O)[C@@H](N)CC(C)C)C(C)C)[C@@H](C)CC)[C@@H](C)CC)CSSC[C@@H](C(=O)N3CCC[C@H]3C(=O)N[C@@H](CCCCN)C(=O)O)NC1=O)C(=O)N[C@@H](CCCCN)C(=O)N[C@@H]([C@@H](C)CC)C(=O)N[C@@H](CCCCN)C(=O)N1CCC[C@H]1C(=O)N[C@@H](CC(N)=O)C(=O)N1CCC[C@H]1C(=O)N[C@@H](C)C(=O)N2 [LDVKKIICVACKIKPNPACKKICPK]

- MIC [13]: 16.5 µM (≈ 20.4 µg/mL)
- MIC [14]: 16.5 µM (≈ 20.4 µg/mL)
- MIC (Candida albicans MDM8): ≥ 33.5 µM
- MIC [15]: ≥ 33.5 µM
- MIC [16]: 16.5 µM (≈ 20.4 µg/mL)
- MIC [17]: 2.1 µM (≈ 2.6 µg/mL)
- MIC (Candida krusei IOC 4559): ≥ 33.5 µM
SMILES: CC[C@H](C)[C@H](N)C(=O)N[C@H](C(=O)N[C@H](C(=O)N[C@@H](CCC(N)=O)C(=O)N[C@@H](Cc1ccc(O)cc1)C(=O)N[C@@H](CCC(=O)O)C(=O)NCC(=O)N[C@@H](Cc1cnc[nH]1)C(=O)N[C@@H](CCCCN)C(=O)N[C@@H](Cc1cnc[nH]1)C(=O)O)[C@@H](C)CC)[C@@H](C)CC [IIIQYEGHKH]

- MIC [31]: 17.5 µM (≈ 21.8 µg/mL)
- MIC [32]: 28.2 µM (≈ 35.1 µg/mL)
- MIC [33]: 24.5 µM (≈ 30.5 µg/mL)
- MIC [34]: ≥ 33.9 µM
- MIC [35]: 27.8 µM (≈ 34.5 µg/mL)
- MIC [36]: 25.6 µM (≈ 31.8 µg/mL)
SMILES: CC(C)C[C@H](NC(=O)[C@@H](NC(=O)CNC(=O)[C@H](C)NC(=O)[C@H](CC(C)C)NC(=O)[C@@H](NC(=O)[C@@H]1CCCN1C(=O)[C@H](CC(C)C)NC(=O)[C@@H](N)Cc1ccccc1)C(C)C)C(C)C)C(=O)N[C@@H](CO)C(=O)N[C@@H](CCCN=C(N)N)C(=O)N[C@@H](C)C(N)=O [FLPVLAGVLSRA]

— DBAASP
